Test system: Transport facilitation protein genes
Assay: DNA chip mRNA expression in yeast, transport facilitation protein genes (Table 5)
Type: cell-based, Saccharomyces cerevisiae S288C
Outline: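 First, S288C yeast grown in YPD at 25° C. are dosed in log phase with one toxicant (growth-inhibiting, not lethal) for 2 h. Next, total RNA is extracted and poly(A) mRNA isolated and reverse-transcribed with Cy3/Cy5-dUTP. Finally, whole-genome chip fluorescence is read relative to unexposed cells.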

In the case of `Oc1cc(Cl)c(Cl)cc1Cl` [(6), 2,4,5-trichlorophenol], the “The level of expressed mRNA in the presence of chemical substance/The level of expressed mRNA in the absence of chemical substance” value (yeast gene YBL030C) is reported as 1.1, the “The level of expressed mRNA in the presence of chemical substance/The level of expressed mRNA in the absence of chemical substance” value (yeast gene YBL099W) is reported as 0.9 and the “The level of expressed mRNA in the presence of chemical substance/The level of expressed mRNA in the absence of chemical substance” value (yeast gene YBR052C) is reported as 2.1. The “The level of expressed mRNA in the presence of chemical substance/The level of expressed mRNA in the absence of chemical substance” value (yeast gene YBR068C) was 1.9, the “The level of expressed mRNA in the presence of chemical substance/The level of expressed mRNA in the absence of chemical substance” value (yeast gene YBR127C) was 1.1 and the “The level of expressed mRNA in the presence of chemical substance/The level of expressed mRNA in the absence of chemical substance” value (yeast gene YBR132C) was 1.2. The “The level of expressed mRNA in the presence of chemical substance/The level of expressed mRNA in the absence of chemical substance” value (yeast gene YBR207W) was 1.6, the “The level of expressed mRNA in the presence of chemical substance/The level of expressed mRNA in the absence of chemical substance” value (yeast gene YBR293W) was 0.9 and the “The level of expressed mRNA in the presence of chemical substance/The level of expressed mRNA in the absence of chemical substance” value (yeast gene YBR294W) was 1.2. The “The level of expressed mRNA in the presence of chemical substance/The level of expressed mRNA in the absence of chemical substance” value (yeast gene YBR298C) was 0.4, the “The level of expressed mRNA in the presence of chemical substance/The level of expressed mRNA in the absence of chemical substance” value (yeast gene YCL025C) was 0.9 and the “The level of expressed mRNA in the presence of chemical substance/The level of expressed mRNA in the absence of chemical substance” value (yeast gene YCL038C) was 3.2. The “The level of expressed mRNA in the presence of chemical substance/The level of expressed mRNA in the absence of chemical substance” value (yeast gene YCR024C-A) was 1.2, the “The level of expressed mRNA in the presence of chemical substance/The level of expressed mRNA in the absence of chemical substance” value (yeast gene YCR037C) was 1.8 and the “The level of expressed mRNA in the presence of chemical substance/The level of expressed mRNA in the absence of chemical substance” value (yeast gene YCR098C) was 1.6. The “The level of expressed mRNA in the presence of chemical substance/The level of expressed mRNA in the absence of chemical substance” value (yeast gene YDL128W) was 2.3, the “The level of expressed mRNA in the presence of chemical substance/The level of expressed mRNA in the absence of chemical substance” value (yeast gene YDL198C) was 0.8 and the “The level of expressed mRNA in the presence of chemical substance/The level of expressed mRNA in the absence of chemical substance” value (yeast gene YDL210W) was 1.3. The “The level of expressed mRNA in the presence of chemical substance/The level of expressed mRNA in the absence of chemical substance” value (yeast gene YDL245C) was 1.1, the “The level of expressed mRNA in the presence of chemical substance/The level of expressed mRNA in the absence of chemical substance” value (yeast gene YDR038C) was 1.8 and the “The level of expressed mRNA in the presence of chemical substance/The level of expressed mRNA in the absence of chemical substance” value (yeast gene YDR039C) was 1.1. The “The level of expressed mRNA in the presence of chemical substance/The level of expressed mRNA in the absence of chemical substance” value (yeast gene YDR086C) was 0.8, the “The level of expressed mRNA in the presence of chemical substance/The level of expressed mRNA in the absence of chemical substance” value (yeast gene YDR270W) was 2.2 and the “The level of expressed mRNA in the presence of chemical substance/The level of expressed mRNA in the absence of chemical substance” value (yeast gene YDR298C) was 1.2. The “The level of expressed mRNA in the presence of chemical substance/The level of expressed mRNA in the absence of chemical substance” value (yeast gene YDR342C) was 1.1, the “The level of expressed mRNA in the presence of chemical substance/The level of expressed mRNA in the absence of chemical substance” value (yeast gene YDR343C) was 1.3 and the “The level of expressed mRNA in the presence of chemical substance/The level of expressed mRNA in the absence of chemical substance” value (yeast gene YDR345C) was 1.2. The “The level of expressed mRNA in the presence of chemical substance/The level of expressed mRNA in the absence of chemical substance” value (yeast gene YDR387C) was 1.2, the “The level of expressed mRNA in the presence of chemical substance/The level of expressed mRNA in the absence of chemical substance” value (yeast gene YDR497C) was 0.6 and the “The level of expressed mRNA in the presence of chemical substance/The level of expressed mRNA in the absence of chemical substance” value (yeast gene YEL027W) was 1.1. For the same compound, the “The level of expressed mRNA in the presence of chemical substance/The level of expressed mRNA in the absence of chemical substance” value (yeast gene YEL063C) was 1.3, the “The level of expressed mRNA in the presence of chemical substance/The level of expressed mRNA in the absence of chemical substance” value (yeast gene YEL065W) was 2.3 and the “The level of expressed mRNA in the presence of chemical substance/The level of expressed mRNA in the absence of chemical substance” value (yeast gene YER053C) was 2.8. For the same compound, the “The level of expressed mRNA in the presence of chemical substance/The level of expressed mRNA in the absence of chemical substance” value (yeast gene YER119C) was 1.3, the “The level of expressed mRNA in the presence of chemical substance/The level of expressed mRNA in the absence of chemical substance” value (yeast gene YFL011W) was 1.0 and the “The level of expressed mRNA in the presence of chemical substance/The level of expressed mRNA in the absence of chemical substance” value (yeast gene YFL041W) was 2.0. The “The level of expressed mRNA in the presence of chemical substance/The level of expressed mRNA in the absence of chemical substance” value (yeast gene YFL050C) was 0.9, the “The level of expressed mRNA in the presence of chemical substance/The level of expressed mRNA in the absence of chemical substance” value (yeast gene YFL054C) was 2.4 and the “The level of expressed mRNA in the presence of chemical substance/The level of expressed mRNA in the absence of chemical substance” value (yeast gene YFL055W) was 1.1. The “The level of expressed mRNA in the presence of chemical substance/The level of expressed mRNA in the absence of chemical substance” value (yeast gene YGL006W) was 1.0, the “The level of expressed mRNA in the presence of chemical substance/The level of expressed mRNA in the absence of chemical substance” value (yeast gene YGL008C) was 1.9 and the “The level of expressed mRNA in the presence of chemical substance/The level of expressed mRNA in the absence of chemical substance” value (yeast gene YGL104C) was 2.1. The “The level of expressed mRNA in the presence of chemical substance/The level of expressed mRNA in the absence of chemical substance” value (yeast gene YGL167C) was 2.0, the “The level of expressed mRNA in the presence of chemical substance/The level of expressed mRNA in the absence of chemical substance” value (yeast gene YGL255W) was 1.1 and the “The level of expressed mRNA in the presence of chemical substance/The level of expressed mRNA in the absence of chemical substance” value (yeast gene YGR055W) was 1.1. The “The level of expressed mRNA in the presence of chemical substance/The level of expressed mRNA in the absence of chemical substance” value (yeast gene YGR065C) was 2.4, the “The level of expressed mRNA in the presence of chemical substance/The level of expressed mRNA in the absence of chemical substance” value (yeast gene YGR082W) was 1.1 and the “The level of expressed mRNA in the presence of chemical substance/The level of expressed mRNA in the absence of chemical substance” value (yeast gene YGR096W) was 1.7. For the same compound, the “The level of expressed mRNA in the presence of chemical substance/The level of expressed mRNA in the absence of chemical substance” value (yeast gene YGR138C) was 0.8, the “The level of expressed mRNA in the presence of chemical substance/The level of expressed mRNA in the absence of chemical substance” value (yeast gene YGR191W) was 1.1 and the “The level of expressed mRNA in the presence of chemical substance/The level of expressed mRNA in the absence of chemical substance” value (yeast gene YGR197C) was 0.5. The “The level of expressed mRNA in the presence of chemical substance/The level of expressed mRNA in the absence of chemical substance” value (yeast gene YGR224W) was 0.8 and the “The level of expressed mRNA in the presence of chemical substance/The level of expressed mRNA in the absence of chemical substance” value (yeast gene YGR260W) was 0.9.
